# Experiments:
# human recombinant CTSC = human recombinant CTSC (Homo sapiens (Human), UniProt P53634); test: CTSC inhibition assay (in vitro), fluorescent substrate GF-AFC; type: biochemical; conditions: 30 μmol/L GF-AFC, pH 5.0, 25° C.
# Outline: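 Recombinant human CTSC pre-activated with cathepsin L (18° C, 30 min), then preincubated with compound 30 min at 25° C in pH 5.0 MES buffer with 5 mmol/L DTT (0.66 ng/mL CTSC, 0.15% DMSO). Cleavage of 30 μmol/L GF-AFC read after 1 h at 25° C (ex 390/em 505 nm); IC50 by 4-parameter fit.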
# CTSC in U937 cells = CTSC in U937 cells (Homo sapiens (Human), UniProt P53634); test: Intracellular CTSC inhibition assay (in vitro), LLOMe-induced cell death in U937 cells; type: cell-based; conditions: 3 hours culture, CellTiter-Glo
# CTSC in U937 cells, sequence (P53634 25-463): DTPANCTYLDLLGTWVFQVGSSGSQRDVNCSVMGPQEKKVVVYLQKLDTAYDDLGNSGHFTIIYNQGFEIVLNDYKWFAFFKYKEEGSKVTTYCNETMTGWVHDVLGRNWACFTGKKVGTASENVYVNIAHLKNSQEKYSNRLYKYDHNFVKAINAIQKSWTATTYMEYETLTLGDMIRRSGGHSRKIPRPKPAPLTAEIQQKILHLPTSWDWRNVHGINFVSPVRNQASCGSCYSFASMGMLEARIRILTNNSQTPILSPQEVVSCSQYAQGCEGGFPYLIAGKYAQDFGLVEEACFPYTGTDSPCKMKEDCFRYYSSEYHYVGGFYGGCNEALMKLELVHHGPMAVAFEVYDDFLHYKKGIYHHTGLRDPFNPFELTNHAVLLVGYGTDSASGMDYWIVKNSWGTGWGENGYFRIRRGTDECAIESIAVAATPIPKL
# Outline: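 U937 cells in RPMI-1640 with 10% FBS were preincubated 30 min with compound ([…], 3-fold dilutions). A 300 μmol/L LLOMe solution was then added, which drives CTSC-dependent cell death, and cells were cultured 3 h. Viability read by CellTiter-Glo luminescence; IC50 from 4-parameter fit.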
# human recombinant CTSC, sequence (P53634 25-134): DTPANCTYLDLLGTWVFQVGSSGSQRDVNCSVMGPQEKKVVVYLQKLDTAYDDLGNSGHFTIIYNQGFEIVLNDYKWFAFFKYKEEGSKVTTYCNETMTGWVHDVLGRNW
# human recombinant CTSC, sequence (P53634 231-394): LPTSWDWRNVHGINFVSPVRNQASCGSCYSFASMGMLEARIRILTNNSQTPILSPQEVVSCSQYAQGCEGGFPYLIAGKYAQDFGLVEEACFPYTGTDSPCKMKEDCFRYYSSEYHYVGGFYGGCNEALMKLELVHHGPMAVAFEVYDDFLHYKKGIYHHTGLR
# human recombinant CTSC, sequence (P53634 395-463): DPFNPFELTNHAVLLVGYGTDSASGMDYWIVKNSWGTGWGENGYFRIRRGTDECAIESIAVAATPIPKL
Structure (SMILES),IC50 (human recombinant CTSC) [nM],IC50 (CTSC in U937 cells) [nM]
O=C([C@@H]1C[C@@H](O)C2(CCC2)CN1)N1CCC(c2nnn(Cc3ccccc3)n2)CC1 [Example 102],9.48,9.46
O=C([C@@H]1C[C@@H](O)C2(CCC2)CN1)N1CCC(c2noc(C3CC(F)(F)C3)n2)(C2CC2)CC1 [Example 69],1.73,1.44
CC(C)C1(c2noc(C3CCC(F)(F)CC3)n2)CCN(C(=O)[C@@H]2C[C@H](S(C)(=O)=O)CN2)CC1 [Example 30],> 1000,> 1000
O=C(c1nc(C2(C(F)(F)F)CCN(C(=O)[C@@H]3C[C@@H](O)C4(CCC4)CN3)CC2)no1)N1CCC(F)(F)CC1 [Example 48],3.07,4
O=C([C@@H]1C[C@@H](O)C2(CCC2)CN1)N1CCC(c2nnn(C3CCC(F)(F)CC3)n2)(C(F)(F)F)CC1 [Example 66],1.05,0.46
CC1(O)CC[C@@H](C(=O)N2CCC(c3noc(C4CC(F)(F)C4)n3)(C(F)(F)F)CC2)NC1 (stereo partly drawn) [Example 76],187,> 111
O=C([C@@H]1CC[C@@]2(CCO2)CN1)N1CCC(c2noc(C3CCC(F)(F)CC3)n2)(C(F)(F)F)CC1 [Example 73],3.28,4.05
"O=C([C@@H]1C[C@@H](O)C2(CCC2)CN1)N1CCC(c2noc(C3CC(F)(F)C3)n2)(C(F)(F)F)CC1 [Example 3, (4-(5-(3,3-Difluorocyclobutyl)-1,2,4-oxadiazol-3-yl)-4-(trifluoromethyl)piperidin-1-yl)((7S,9R)-9-hydroxy-6-azaspiro[3.5]nonan-7-yl)methanone]",1.52,0.49
CN(CC1CCC(F)(F)CC1)C(=O)C1(C(F)(F)F)CCN(C(=O)[C@@H]2C[C@@H](O)C3(CCC3)CN2)CC1 [Example 8],1.6,1.62

# From patent US12522593B2, “Azacycloalkyl carbonyl cyclic amine compound” (Alivexis, Inc., priority 2022, dated 2026)
